In PubChem BioAssay AID1963964 (Molecular Pharmacology Branch, DTP, NCI, 2024):

Test system: 997726-040-R-J2-PDC tumor spheroids, viability
Experiment: Anticancer human tumor 997726-040-R-J2-PDC patient-derived squamous cell lung carcinoma cell line growth inhibition [PI3K]
Details: spheroids with HUVEC and MSC; for IC50: curve of first compound; for viability, T/C: stronger effect = lower value
How it was run: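 Stroma-containing spheroids: tumor line, pooled-donor HUVEC, hMSC. Treatments: targeted agents with PI3K inhibitors. Dosing: clinically relevant, half-log spacing, 10 microM ceiling without known Cmax. Read-out: cell viability.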

[1] = second compound 0.0316 µM, first compound 0.0316 µM
[2] = second compound 0.0316 µM, first compound 0.1 µM
[3] = second compound 0.1 µM, first compound 0.0316 µM
[4] = second compound 0.1 µM, first compound 0.1 µM
[5] = second compound 0.316 µM, first compound 0.0316 µM
[6] = second compound 0.316 µM, first compound 0.1 µM
[7] = second compound 1 µM, first compound 0.0316 µM
[8] = second compound 1 µM, first compound 0.1 µM
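Note: spheroids exposed to compounds for seven days before readout.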

**Q.** `Cn1ncc(Cl)c1-c1cc(C(=O)NC(CN)Cc2cccc(F)c2)sc1Cl` (centres undefined) + CC(Nc1ccc2c(c1)OCCn1cc(N3C(=O)OCC3C(F)F)nc1-2)C(N)=O was tested. Which IC50 (second compound 0.00316 µM) did it give?
**A.** Its IC50 is 0.0827 µM.

**Q.** And the IC50 (second compound 0.01 µM)?
**A.** The IC50 was 0.083 µM.

**Q.** What about the IC50 (second compound 0.0316 µM) of the same molecule?
**A.** Its IC50 is 0.0331 µM.

**Q.** And the IC50 (second compound 0.1 µM)?
**A.** Its IC50 is under 0.0316 µM.

**Q.** And the IC50 (second compound 0.316 µM)?
**A.** The IC50 was under 0.0316 µM.

**Q.** What about the IC50 (second compound 1 µM) of the same molecule?
**A.** The IC50 was under 0.0316 µM.

**Q.** What about the viability, T/C (second compound 0.00316 µM, first compound 0.0316 µM) of the same molecule?
**A.** The viability, T/C was 75.1%.

**Q.** And the viability, T/C (second compound 0.00316 µM, first compound 0.1 µM)?
**A.** Its viability, T/C is 45.4%.

**Q.** What about the viability, T/C (second compound 0.00316 µM, first compound 0.316 µM) of the same molecule?
**A.** Its viability, T/C is 20.1%.

**Q.** What about the viability, T/C (second compound 0.00316 µM, first compound 1 µM) of the same molecule?
**A.** The viability, T/C was 13.6%.

**Q.** And the viability, T/C (second compound 0.00316 µM, first compound 3.16 µM)?
**A.** Its viability, T/C is 10.8%.

**Q.** What about the viability, T/C (second compound 0.00316 µM, first compound 10 µM) of the same molecule?
**A.** Its viability, T/C is 7.43%.

**Q.** And the viability, T/C (second compound 0.01 µM, first compound 0.0316 µM)?
**A.** Its viability, T/C is 62.8%.

**Q.** And the viability, T/C (second compound 0.01 µM, first compound 0.1 µM)?
**A.** Its viability, T/C is 48.7%.

**Q.** And the viability, T/C (second compound 0.01 µM, first compound 0.316 µM)?
**A.** The viability, T/C was 21.5%.

**Q.** What about the viability, T/C (second compound 0.01 µM, first compound 1 µM) of the same molecule?
**A.** Its viability, T/C is 14.8%.

**Q.** And the viability, T/C (second compound 0.01 µM, first compound 3.16 µM)?
**A.** Its viability, T/C is 8.36%.

**Q.** What about the viability, T/C (second compound 0.01 µM, first compound 10 µM) of the same molecule?
**A.** The viability, T/C was 5.21%.

**Q.** What about the viability, T/C [1] of the same molecule?
**A.** Its viability, T/C is 50.1%.

**Q.** And the viability, T/C [2]?
**A.** The viability, T/C was 39.8%.

**Q.** And the viability, T/C (second compound 0.0316 µM, first compound 0.316 µM)?
**A.** Its viability, T/C is 21%.

**Q.** And the viability, T/C (second compound 0.0316 µM, first compound 1 µM)?
**A.** Its viability, T/C is 12%.

**Q.** What about the viability, T/C (second compound 0.0316 µM, first compound 3.16 µM) of the same molecule?
**A.** The viability, T/C was 7.58%.

**Q.** And the viability, T/C (second compound 0.0316 µM, first compound 10 µM)?
**A.** Its viability, T/C is 3.65%.

**Q.** What about the viability, T/C [3] of the same molecule?
**A.** The viability, T/C was 41%.

**Q.** And the viability, T/C [4]?
**A.** The viability, T/C was 32.6%.

**Q.** What about the viability, T/C (second compound 0.1 µM, first compound 0.316 µM) of the same molecule?
**A.** Its viability, T/C is 19.7%.

**Q.** And the viability, T/C (second compound 0.1 µM, first compound 1 µM)?
**A.** The viability, T/C was 11.2%.

**Q.** And the viability, T/C (second compound 0.1 µM, first compound 3.16 µM)?
**A.** The viability, T/C was 6.59%.

**Q.** What about the viability, T/C (second compound 0.1 µM, first compound 10 µM) of the same molecule?
**A.** Its viability, T/C is 3.25%.

**Q.** What about the viability, T/C [5] of the same molecule?
**A.** The viability, T/C was 32.3%.

**Q.** What about the viability, T/C [6] of the same molecule?
**A.** Its viability, T/C is 25.9%.

**Q.** What about the viability, T/C (second compound 0.316 µM, first compound 0.316 µM) of the same molecule?
**A.** The viability, T/C was 15.7%.

**Q.** And the viability, T/C (second compound 0.316 µM, first compound 1 µM)?
**A.** The viability, T/C was 11.2%.

**Q.** What about the viability, T/C (second compound 0.316 µM, first compound 3.16 µM) of the same molecule?
**A.** The viability, T/C was 5.81%.

**Q.** What about the viability, T/C (second compound 0.316 µM, first compound 10 µM) of the same molecule?
**A.** The viability, T/C was 2.34%.

**Q.** And the viability, T/C [7]?
**A.** The viability, T/C was 24%.

**Q.** And the viability, T/C [8]?
**A.** The viability, T/C was 23.5%.

**Q.** What about the viability, T/C (second compound 1 µM, first compound 0.316 µM) of the same molecule?
**A.** The viability, T/C was 13.6%.

**Q.** And the viability, T/C (second compound 1 µM, first compound 1 µM)?
**A.** The viability, T/C was 9.98%.

**Q.** What about the viability, T/C (second compound 1 µM, first compound 3.16 µM) of the same molecule?
**A.** Its viability, T/C is 6.08%.

**Q.** What about the viability, T/C (second compound 1 µM, first compound 10 µM) of the same molecule?
**A.** The viability, T/C was 2.69%.

**Q.** Which IC50 (second compound 0.0316 µM) does the source give for `CC(C)n1nc(-c2ccc3oc(N)nc3c2)c2c(N)ncnc21` + CC(Nc1ncnc2nc[nH]c12)c1cc2cccc(Cl)c2c(=O)n1-c1ccccc1 here?
**A.** Its IC50 is 0.0234 µM.

**Q.** What about the IC50 (second compound 0.1 µM) of the same molecule?
**A.** The IC50 was 0.025 µM.

**Q.** And the IC50 (second compound 0.316 µM)?
**A.** Its IC50 is 0.0239 µM.

**Q.** And the IC50 (second compound 1 µM)?
**A.** The IC50 was 0.0208 µM.

**Q.** And the IC50 (second compound 3.16 µM)?
**A.** Its IC50 is 0.00614 µM.

**Q.** And the IC50 (second compound 10 µM)?
**A.** Its IC50 is 0.00251 µM.

**Q.** What about the viability, T/C (second compound 0.0316 µM, first compound 0.000316 µM) of the same molecule?
**A.** Its viability, T/C is 99.1%.

**Q.** And the viability, T/C (second compound 0.0316 µM, first compound 0.001 µM)?
**A.** The viability, T/C was 89.6%.

**Q.** And the viability, T/C (second compound 0.0316 µM, first compound 0.00316 µM)?
**A.** The viability, T/C was 77.3%.

**Q.** And the viability, T/C (second compound 0.0316 µM, first compound 0.01 µM)?
**A.** The viability, T/C was 62.1%.

**Q.** And the viability, T/C [1]?
**A.** The viability, T/C was 50%.

**Q.** And the viability, T/C [2]?
**A.** Its viability, T/C is 18%.

**Q.** What about the viability, T/C (second compound 0.1 µM, first compound 0.000316 µM) of the same molecule?
**A.** The viability, T/C was 99.3%.

**Q.** And the viability, T/C (second compound 0.1 µM, first compound 0.001 µM)?
**A.** Its viability, T/C is 88.2%.

**Q.** What about the viability, T/C (second compound 0.1 µM, first compound 0.00316 µM) of the same molecule?
**A.** The viability, T/C was 80.2%.

**Q.** And the viability, T/C (second compound 0.1 µM, first compound 0.01 µM)?
**A.** Its viability, T/C is 64%.

**Q.** What about the viability, T/C [3] of the same molecule?
**A.** The viability, T/C was 48.6%.

**Q.** What about the viability, T/C [4] of the same molecule?
**A.** The viability, T/C was 19.5%.

**Q.** And the viability, T/C (second compound 0.316 µM, first compound 0.000316 µM)?
**A.** The viability, T/C was 93.2%.

**Q.** And the viability, T/C (second compound 0.316 µM, first compound 0.001 µM)?
**A.** Its viability, T/C is 90.7%.

**Q.** And the viability, T/C (second compound 0.316 µM, first compound 0.00316 µM)?
**A.** The viability, T/C was 75.3%.

**Q.** What about the viability, T/C (second compound 0.316 µM, first compound 0.01 µM) of the same molecule?
**A.** Its viability, T/C is 62.8%.

**Q.** What about the viability, T/C [5] of the same molecule?
**A.** Its viability, T/C is 48.7%.

**Q.** And the viability, T/C [6]?
**A.** Its viability, T/C is 17.4%.

**Q.** And the viability, T/C (second compound 1 µM, first compound 0.000316 µM)?
**A.** The viability, T/C was 86.2%.

**Q.** What about the viability, T/C (second compound 1 µM, first compound 0.001 µM) of the same molecule?
**A.** Its viability, T/C is 83.1%.

**Q.** And the viability, T/C (second compound 1 µM, first compound 0.00316 µM)?
**A.** Its viability, T/C is 70.2%.

**Q.** And the viability, T/C (second compound 1 µM, first compound 0.01 µM)?
**A.** Its viability, T/C is 63.8%.

**Q.** And the viability, T/C [7]?
**A.** Its viability, T/C is 43.4%.

**Q.** And the viability, T/C [8]?
**A.** Its viability, T/C is 17%.

**Q.** What about the viability, T/C (second compound 3.16 µM, first compound 0.000316 µM) of the same molecule?
**A.** Its viability, T/C is 75.4%.

**Q.** What about the viability, T/C (second compound 3.16 µM, first compound 0.001 µM) of the same molecule?
**A.** The viability, T/C was 65.2%.

**Q.** And the viability, T/C (second compound 3.16 µM, first compound 0.00316 µM)?
**A.** The viability, T/C was 53.2%.

**Q.** What about the viability, T/C (second compound 3.16 µM, first compound 0.01 µM) of the same molecule?
**A.** Its viability, T/C is 45.4%.

**Q.** What about the viability, T/C (second compound 3.16 µM, first compound 0.0316 µM) of the same molecule?
**A.** Its viability, T/C is 39.4%.

**Q.** What about the viability, T/C (second compound 3.16 µM, first compound 0.1 µM) of the same molecule?
**A.** Its viability, T/C is 16.7%.

**Q.** What about the viability, T/C (second compound 10 µM, first compound 0.000316 µM) of the same molecule?
**A.** The viability, T/C was 56.8%.

**Q.** And the viability, T/C (second compound 10 µM, first compound 0.001 µM)?
**A.** Its viability, T/C is 51.4%.

**Q.** What about the viability, T/C (second compound 10 µM, first compound 0.00316 µM) of the same molecule?
**A.** Its viability, T/C is 50%.

**Q.** What about the viability, T/C (second compound 10 µM, first compound 0.01 µM) of the same molecule?
**A.** Its viability, T/C is 41.8%.

**Q.** What about the viability, T/C (second compound 10 µM, first compound 0.0316 µM) of the same molecule?
**A.** The viability, T/C was 31.2%.

**Q.** And the viability, T/C (second compound 10 µM, first compound 0.1 µM)?
**A.** Its viability, T/C is 11.9%.
